Laboratory results as given in patent US5580897A, “1,2-dithiins having antifungal activity” (Shaman Pharmaceuticals, Inc., priority 1995, dated 1996).
≈ marks a conversion by molar mass, not a printed value.

Experiments:
[1] = system: Aspergillus fumigatus ATCC13073 (AF); test: in vitro antifungal activity, minimum inhibitory concentration; assay type: cell-based
Protocol: (§1) The antifungal activities of representative 1,2-dithiin compounds listed below were determined in vitro using three fungal cultures: Candida albicans ATCC10259 (CA), Cryptococcus neoformans ATCC36556 (CN), and Aspergillus fumigatus ATCC13073 (AF).
(§2) The method used to determine in vitro antifungal activity is discussed in McGinnis, M. R., Laboratory Handbook of Medical Mycology, Academic Press, New York, London, p. 661 (1980); and Drouget, E.; Dupont, B.; Improvist, L.; Vivian, M. A.; and Tortorano, A. M.; "Disc Agar Diffusion and Microplate Automatized Techniques for In Vitro Evaluation of Antifungal Agents on Yeast and Sporulated Pathogenic Fungi" in In Vitro and In Vivo Evaluation of Antifungal Agents, Eds. lwata, K. and Vanden Bossche, H., Elsevier Science Publishers, New York, Oxford, p. 303 (1986).

[2] = system: Cryptococcus neoformans ATCC36556 (CN); test: as above; assay type: cell-based
Protocol: as §1, §2

[3] = system: Candida albicans ATCC10259 (CA); test: as above; assay type: cell-based
Protocol: as §1, §2

[4] = system: Candida krusei GK7831 (CK); test: as above; assay type: cell-based; conditions: Pichia kudriavzevii
Text: (§3) Additionally, two 1,2-dithiin compounds, 3-(hydroxymethyl)-6-[N-hydroxyiminomethyl]-1,2-dithiin and 3,6-[bis(N-hydroxyiminomethyl)]-1,2-dithiin, were chosen as compounds representative of the 1,2-dithiin class to be tested against a variety of fungi: Candida albicans A-26 (A-26), Candida albicans B311 (B311), Candida krusei GK7831 (CK), Candida parapsilosis CP18 (CP), Candida tropicalis 1525 (CT), Cryptococcus neoformans MI-106 (MI-106), Aspergillus fumigatus WM-1 (WM-1) and Trichophyton rubrum ATCC18762 (TR). The minimum inhibitory concentration (MIC) for 3-(hydroxymethyl)-6-[N-hydroxyiminomethyl]-1,2-dithiin and 3,6-[bis(N-hydroxyiminomethyl)]-1,2-dithiin are shown below in Table II.
as §2

[5] = system: Candida parapsilosis CP18 (CP); test: as above; assay type: cell-based; conditions: Lodderomyces parapsilosis
Text: as §3, §2

[6] = system: Candida albicans A-26 (A-26); test: as above; assay type: cell-based; conditions: Candida albicans A-26, in vitro
Text: as §3, §2

[7] = system: Candida albicans B311 (B311); test: as above; assay type: cell-based
Text: as §3, §2

[8] = system: Trichophyton rubrum ATCC18762 (TR); test: as above; assay type: cell-based
Text: as §3, §2

[9] = system: Candida tropicalis 1525 (CT); test: as above; assay type: cell-based; conditions: Candida tropicalis 1525, in vitro
Text: as §3, §2

[10] = system: Aspergillus fumigatus WM-1 (WM-1); test: as above; assay type: cell-based; conditions: Aspergillus fumigatus WM-1, in vitro
Text: as §3, §2

[11] = system: Cryptococcus neoformans MI-106 (MI-106); test: as above; assay type: cell-based; conditions: Cryptococcus neoformans MI-106, in vitro
Text: as §3, §2

virus = conditions: literature; cited from earlier work
fungi = conditions: natural products, literature; cited from earlier work
[12] = literature; cited from earlier work

Work on `CON=CC1=CC=C(C=NOC)SS1` [3,6-Bis[N-methoxyiminomethyl]-1,2-dithiin] yielded an MIC [1] of 6.3 µg/mL (≈ 27.4 µM), an MIC [2] of 1.6 µg/mL (≈ 6.95 µM) and an MIC [3] of 0.8 µg/mL (≈ 3.47 µM).
In the case of `CON=CC1=CC=C(CO)SS1` [3-(Hydroxymethyl)-6-[N-methoxyiminomethyl]-1,2-dithiin], the MIC [1] is reported as 6.3 µg/mL (≈ 31 µM), the MIC [2] is reported as 6.3 µg/mL (≈ 31 µM) and the MIC [3] is reported as 6.3 µg/mL (≈ 31 µM).
In the case of `CCOC(=O)/C=C/C1=CC=C(CO)SS1` [3-(Hydroxymethyl)-6-[ethyl propenoate-3-yl]-1,2-dithiin], the MIC [1] is reported as 25 µg/mL (≈ 102 µM), the MIC [2] is reported as 6.3 µg/mL (≈ 25.8 µM) and the MIC [3] is reported as 12.5 µg/mL (≈ 51.2 µM).
`ON=CC1=CC=C(C=NO)SS1` [3,6-[Bis(N-hydroxyiminomethyl)]-1,2-dithiin] gave an MIC [4] of 6.3 µg/mL (≈ 31.1 µM), an MIC [5] of 0.2 µg/mL (≈ 0.989 µM) and an MIC [6] of 0.2 µg/mL (≈ 0.989 µM). For the same molecule, the MIC [7] was 0.1 µg/mL (≈ 0.494 µM), the MIC [8] was 0.05 µg/mL (≈ 0.247 µM) and the MIC [9] was 1.6 µg/mL (≈ 7.91 µM). For the same molecule, the MIC [10] was 0.2 µg/mL (≈ 0.989 µM), the MIC [11] was 1.6 µg/mL (≈ 7.91 µM) and the MIC [1] was 0.4 µg/mL (≈ 1.98 µM). For the same molecule, the MIC [2] was 0.8 µg/mL (≈ 3.96 µM) and the MIC [3] was 0.1 µg/mL (≈ 0.494 µM).
Work on `N#CC1=CC=C(CO)SS1` [3-(Hydroxymethyl)-6-cyano-1,2-dithiin] yielded an MIC [1] of 0.8 µg/mL (≈ 4.67 µM), an MIC [2] of 0.8 µg/mL (≈ 4.67 µM) and an MIC [3] of 0.8 µg/mL (≈ 4.67 µM).
For `OCC1=CC=C(C=NO)SS1` [3-(Hydroxymethyl)-6-[N-hydroxyiminomethyl]-1,2-dithiin], the MIC [4] was 6.3 µg/mL (≈ 33.3 µM), the MIC [5] was 3.1 µg/mL (≈ 16.4 µM) and the MIC [6] was 1.6 µg/mL (≈ 8.45 µM). It also gave an MIC [7] of 1.6 µg/mL (≈ 8.45 µM), an MIC [8] of 0.8 µg/mL (≈ 4.23 µM) and an MIC [9] of 6.3 µg/mL (≈ 33.3 µM). For the same molecule, the MIC [10] was 1.6 µg/mL (≈ 8.45 µM), the MIC [11] was 1.6 µg/mL (≈ 8.45 µM) and the MIC [1] was 1.6 µg/mL (≈ 8.45 µM). For the same molecule, the MIC [2] was 1.6 µg/mL (≈ 8.45 µM) and the MIC [3] was 1.6 µg/mL (≈ 8.45 µM).
Molecule `O=CC1=CC=C(CO)SS1` [3-(Hydroxymethyl)-6-formyl-1,2-dithiin, 3-(Hydroxymethyl)-6-aldehydyl-1,2-dithiin] has an MIC [1] of 25 µg/mL (≈ 143 µM), an MIC [2] of 6.3 µg/mL (≈ 36.2 µM) and an MIC [3] of 12.5 µg/mL (≈ 71.7 µM).
`O=CC1=CC=C(C=O)SS1` [3-6-Bis(formyl)-1,2-dithiin, 3,6-Bis(formyl)-1,2-dithiin] showed an MIC [1] of 6.3 µg/mL (≈ 36.6 µM), an MIC [2] of 1.6 µg/mL (≈ 9.29 µM) and an MIC [3] of 1.6 µg/mL (≈ 9.29 µM).
`N#C/C=C/C1=CC=C(CO)SS1` [3-(Hydroxymethyl)-6-[2-cyanoethene-1-yl]-1,2-dithiin] gave an MIC [1] of 6.3 µg/mL (≈ 31.9 µM), an MIC [2] of 3.1 µg/mL (≈ 15.7 µM) and an MIC [3] of 12.5 µg/mL (≈ 63.4 µM).
Molecule `COC(=O)/C=C/C1=CC=C(CO)SS1` [3-(Hydroxymethyl)-6-[methyl propenoate-3-yl]-1,2-dithiin] has an MIC [1] of 6.3 µg/mL (≈ 27.4 µM), an MIC [2] of 6.3 µg/mL (≈ 27.4 µM) and an MIC [3] of 6.3 µg/mL (≈ 27.4 µM).
In the case of `C=CC#CC#CC1=CC=C(C#CC)SS1` [Thiarubrine A], the antiviral activity (virus) is given as “possess both antifungal and antiviral activity”, the antifungal activity (fungi) is given as “possess both antifungal and antiviral activity” and the cytotoxicity [12] is given as “cytotoxic”.
